Assay results from patent publication US8389020B1, “Immediate action and long-lasting formulation to control moss and liverwort” (Tara Innovations LLC, priority 2011, dated 2013).

System: moss
Experiment: Experiment 1: ferrous sulfate/lime mixtures applied to 6″×6″ moss areas in triplicate
Assay type: in vivo
Conditions: in mixture with lime
Method: In order to establish the effective concentration of ferrous sulfate in the formulation, mixtures of ferrous sulfate and lime with a ferrous sulfate concentration between 0 to 60% (w/w) were prepared (Table I) and applied to 6″×6″ area in triplicate. Water was sprayed over the area. The day time high temperature was 40° F. during the experiment and the night temperature decreased to 28° F. In one day, area with 30% or more ferrous sulfate concentration treatment turned black burning all the moss (Table II). The areas with 10% and 20% […] treatment were black in a week. There was no effect of 100% lime on the moss. Thus, a minimum concentration of 10% is suitable for the satisfactory results within a week. When % ferrous sulfate was more than 30%, the moss turned black in one day.

## O.O.O.O.O.O.O.O=S(=O)([O-])[O-].[Fe+2] [ferrous sulfate, Ferrous sulfate septahydrate (FeSO4.7H2O)]
  Minimum ferrous sulfate concentration suitable for satisfactory results within a week: 10%
